Assay results: US9205132B2, “Method of lowering mortality” (CORTHERA, INC., priority 2008, dated 2015)
Marks after values point to notes of the source that are not given here.

Key:
[1] = tested on: patients with acute heart failure (AHF); experiment: In-hospital short-term outcomes (worsening heart failure, length of stay, signs of heart failure, diuretic and nitroglycerin use, body weight), Pre-RELAX-AHF trial; assay type: in vivo, human; conditions: for Length of Hospital Stay: mean ± SD
Procedure: (§1) Study Procedures. The study was approved by the relevant ethics committees, institutional review hoards and regulatory authorities, and conducted under the International Conference on Harmonization Good Clinical Practice guidelines. All patients provided informed written consent prior to participation. […] The placebo used for the study was the same solution as the diluent used to prepare the 100 μg/kg/day dose. The randomization ratio was 3:2:2:2:2, respectively, Relaxin (Corthera, San Mateo, Calif.) was manufactured using recombinant techniques and was identical to the naturally-occurring peptide hormone. By protocol, the study drug infusion was to be terminated if the patient's SBP was reduced to <100 mmHg or by >40 mmHg compared to baseline in two successive measurements, 15 minutes apart. Investigators were not prohibited from utilizing any standard medication, thought necessary to treat patients enrolled in the study, including additional vasodilators, following a 4-hour washout period during which time IV vasodilators, IV pure inotropes and meals were withheld, hemodynamic, renal, and clinical responses to 48 hours of study drug infusion were assessed.
(§2) Study Endpoints. […] 4.) Length of initial hospital stay.

[2] = tested on: patients with acute heart failure (AHF); experiment: Post-discharge outcomes to Day 60 and Day 180 (death, rehospitalization), Pre-RELAX-AHF trial; conditions: for Days alive out of hospital: Day 60, mean ± SD
Procedure: Patient-reported dyspnea was assessed using both a standard 7-point Likert Scale and a standard 100-mm Visual Analog Scale (VAS). Assessments were performed at baseline (VaS only), 6 h, 12 h, 24 h, 48 h after initiation of drug therapy and at Days 3, 4, 5 and 14. Questionnaires were administered in the local language, and investigators received training in the standardized administration of these evaluations. Daily, serial physician-reported assessments of heart failure signs and symptoms were, conducted including jugular venous distension, rales, edema, orthopnea, and dyspnea on exertion, in-hospital worsening heart failure was defined as a physician-determined assessment based on worsening symptoms or signs of heart failure and the need for the addition or institution of IV medications or mechanical support to treat AHF. Vital status and rehospitalization information was collected by telephone at Day 30, Day 60 and (vital status only at.) Day 180. When the last enrolled patient reached Day 60, telephone contact was made with all patients who were between Day 60 and Day 180 of follow-up to complete the study.
1.) Relief of dyspnea, assessed with two complementary Instruments; (a) Change in dyspnea by Likert scale, and (b) Change from baseline by Visual Analog Scale. 2.) In-hospital worsening heart failure (WMF) to Day 5. […] 4.) Length of initial hospital stay. 5.) Days alive and out-of-hospital to Day 60. 6.) Death due to cardiovascular causes or rehospitalization for heart failure or renal failure to Day 60. 7.) Mortality due to cardiovascular causes to Day 180. In addition, serial assessments of safety were performed including vital-signs, physical examinations, adverse events and clinical laboratory evaluations.
Data are presented as means with standard deviations unless otherwise specified. Missing data were generally imputed by a last-observation-carried-forward approach. The worst observed dyspnea Likert or VAS score was carried forward from the time of death or worsening heart failure. The area under the curve representing the change in VAS score from baseline through Day 5 was computed by trapezoidal rule. For patients who died during the initial hospitalization, length of stay was imputed as the maximum observed plus 1 day (33 days). […] To control for regional variations in this relatively small study, region as a covariate or stratifying variable was prospectively pre-specified in the analyses of treatment effect. Rehospitalization and mortality rates through Day 180 were estimated using Kaplan-Meier (product-limit) methods, and groups compared using the Wald test of the treatment effect from Cox regression models, where time-to-event was censored at last patient contact for patients without the event of interest.

[3] = tested on: patients with acute heart failure (AHF); experiment: Safety endpoints (adverse events, blood pressure, renal impairment, clinical laboratory), Pre-RELAX-AHF trial; assay type: in vivo, human
Procedure: as §1, §2

[4] = relaxin for 48 hours, AHF patients

Substance: Relaxin
- % of subjects at Day 5 with: JVP <6 cm ([1]; 10 mcg/kg/d IV 48 h): 72.5%
- % of subjects at Day 5 with: No edema ([1]; 10 mcg/kg/d IV 48 h): 55.0%
- % of subjects at Day 5 with: No rales ([1]; 10 mcg/kg/d IV 48 h): 65.0%
- Worsening HF through Day 5 (%) ([1]; 10 mcg/kg/d IV 48 h): 20.0%
- patients receiving intravenous nitroglycerin during the first 24 hours ([1]; 10 mcg/kg/d IV 48 h): 10.0%
- Length of Hospital Stay ([1]; 10 mcg/kg/d IV 48 h): 10.9 ± 8.5 days
- Median change in body weight from baseline to Day 14 [kg; median (Q1; Q3)] ([1]; 10 mcg/kg/d IV 48 h): -2.0 kg
- Median total IV diuretic dose from randomization to Day 5 [mg; median (Q1-Q3)] ([1]; 10 mcg/kg/d IV 48 h): 100 mg
- % of subjects at Day 5 with: JVP <6 cm ([1]; 30 mcg/kg/d IV 48 h): 78.6%
- % of subjects at Day 5 with: No edema ([1]; 30 mcg/kg/d IV 48 h): 64.3 † %
- % of subjects at Day 5 with: No rales ([1]; 30 mcg/kg/d IV 48 h): 76.2%
- Worsening HF through Day 5 (%) ([1]; 30 mcg/kg/d IV 48 h): 11.9%
- patients receiving intravenous nitroglycerin during the first 24 hours ([1]; 30 mcg/kg/d IV 48 h): 9.5%
- Length of Hospital Stay ([1]; 30 mcg/kg/d IV 48 h): 10.2 ± 6.1 days
- Median change in body weight from baseline to Day 14 [kg; median (Q1; Q3)] ([1]; 30 mcg/kg/d IV 48 h): -3.0 kg
- Median total IV diuretic dose from randomization to Day 5 [mg; median (Q1-Q3)] ([1]; 30 mcg/kg/d IV 48 h): 100 mg
- % of subjects at Day 5 with: JVP <6 cm ([1]; 100 mcg/kg/d IV 48 h): 73.0%
- % of subjects at Day 5 with: No edema ([1]; 100 mcg/kg/d IV 48 h): 51.4 * %
- % of subjects at Day 5 with: No rales ([1]; 100 mcg/kg/d IV 48 h): 70.3%
- Worsening HF through Day 5 (%) ([1]; 100 mcg/kg/d IV 48 h): 13.5%
- patients receiving intravenous nitroglycerin during the first 24 hours ([1]; 100 mcg/kg/d IV 48 h): 13.5
- Length of Hospital Stay ([1]; 100 mcg/kg/d IV 48 h): 11.1 ± 6.6 days
- Median change in body weight from baseline to Day 14 [kg; median (Q1; Q3)] ([1]; 100 mcg/kg/d IV 48 h): -2.5 kg
- Median total IV diuretic dose from randomization to Day 5 [mg; median (Q1-Q3)] ([1]; 100 mcg/kg/d IV 48 h): 90 + mg
- % of subjects at Day 5 with: JVP <6 cm ([1]; 250 mcg/kg/d IV 48 h): 76.6 + %
- % of subjects at Day 5 with: No edema ([1]; 250 mcg/kg/d IV 48 h): 61.2 † %
- % of subjects at Day 5 with: No rales ([1]; 250 mcg/kg/d IV 48 h): 71.4%
- Worsening HF through Day 5 (%) ([1]; 250 mcg/kg/d IV 48 h): 10.2%
- patients receiving intravenous nitroglycerin during the first 24 hours ([1]; 250 mcg/kg/d IV 48 h): 4.1%
- Length of Hospital Stay ([1]; 250 mcg/kg/d IV 48 h): 10.6 ± 6.6 days
- Median change in body weight from baseline to Day 14 [kg; median (Q1; Q3)] ([1]; 250 mcg/kg/d IV 48 h): -2.0 kg
- Median total IV diuretic dose from randomization to Day 5 [mg; median (Q1-Q3)] ([1]; 250 mcg/kg/d IV 48 h): 140 mg
- period over which the improvements lasted ([1]; relaxin administered for as little as 48 hours): 14 days
- reduction in excessive body weight due to fluid retention, average loss [1, 4]: about 1 kg
- shorter hospital stays [1, 4]: ≤ 2.5 days
- mean length of stay for the index hospitalization, shorter than for placebo ([1]; relaxin groups 10-250 mcg/kg/d vs placebo): 0.9 to 1.8 days
- estimated hazard reduction, death due to cardiovascular causes or rehospitalization due to heart failure or renal failure at day 60 ([2]; 30 mcg/kg/d IV 48 h, vs placebo): 87%
- Days alive out of hospital ([2]; 10 mcg/kg/d IV 48 h): 47.0 ± 13.0 days
- Days alive out of hospital ([2]; 30 mcg/kg/d IV 48 h): 47.9 ± 10.1 days
- Days alive out of hospital ([2]; 100 mcg/kg/d IV 48 h): 48 ± 10.1 days
- Days alive out of hospital ([2]; 250 mcg/kg/d IV 48 h): 47.6 ± 12.0 days
- All-cause death (KM %) ([2]; Day 180, 10 mcg/kg/d IV 48 h): 5.0%
- mean number of days alive and out-of-hospital at Day 60, greater than placebo ([2]; relaxin-treated patients vs placebo): approximately 4 days
- Patients with any AE from Day 15 to Day 30, n (%) ([3]; 10 mcg/kg/d IV 48 h): 4 (10.0%) n (%)
- Patients with any SAEs to Day 30, n (%) ([3]; 10 mcg/kg/d IV 48 h): 7 (17.5%) n (%)
- Patients with any adverse events to Day 30, n (%) ([3]; 10 mcg/kg/d IV 48 h): 32 (80.0%) n (%)
- Protocol-specified study drug discontinuation due to blood pressure reduction ([3]; 10 mcg/kg/d IV 48 h): 20.0%
- Renal impairment: Patients with ≧0.3 mg/dL increase in creatinine at Day 5 ([3]; 10 mcg/kg/d IV 48 h): 3 (7.9%) n (%)
- Renal impairment: Patients with ≧0.3 mg/dL increase in creatinine at Day 5 and Day 14 ([3]; 10 mcg/kg/d IV 48 h): 3 (7.5%) n (%)
- Renal impairment: Patients with ≧25% increase in creatinine at Day 5 ([3]; 10 mcg/kg/d IV 48 h): 4 (10.0%) n (%)
- SAE to Day 30: Acute respiratory failure, n (%) ([3]; 10 mcg/kg/d IV 48 h): 0 n (%)
- SAE to Day 30: Bronchitis, n (%) ([3]; 10 mcg/kg/d IV 48 h): 0 n (%)
- SAE to Day 30: Cardiac failure, n (%) ([3]; 10 mcg/kg/d IV 48 h): 2 (5.0%) n (%)
- SAE to Day 30: Cerebrovascular accident, n (%) ([3]; 10 mcg/kg/d IV 48 h): 0 n (%)
- SAE to Day 30: Hypotension, n (%) ([3]; 10 mcg/kg/d IV 48 h): 0 n (%)
- SAE to Day 30: Noncardiac chest pain, n (%) ([3]; 10 mcg/kg/d IV 48 h): 2 (5.0%) n (%)
- SAE to Day 30: Pneumonia, n (%) ([3]; 10 mcg/kg/d IV 48 h): 0 n (%)
- SAE to Day 30: Renal failure, n (%) ([3]; 10 mcg/kg/d IV 48 h): 0 n (%)
- SAE to Day 30: Urinary retention, n (%) ([3]; 10 mcg/kg/d IV 48 h): 0 n (%)
- SAE to Day 30: Urinary tract infection, n (%) ([3]; 10 mcg/kg/d IV 48 h): 0 n (%)
- SAE to Day 30: Ventricular fibrillation, n (%) ([3]; 10 mcg/kg/d IV 48 h): 1 (2.5%) n (%)
- mean change in creatinine from baseline at Day 14 ([3]; 10 mcg/kg/d IV 48 h): 0.07 ± 0.24 mg/dL
- patients requiring treatment of blood pressure reduction ([3]; 10 mcg/kg/d IV 48 h): None of the patients
- proportion of patients at Day 14 with an increase in creatinine of 0.3 mg/dL or more ([3]; 10 mcg/kg/d IV 48 h): 19.4%
- change from baseline in mean hematocrit at 48 hours ([3]; 10 mcg/kg/d IV 48 h, described as transient decrease): 0.57%
- Patients with any AE from Day 15 to Day 30, n (%) ([3]; 30 mcg/kg/d IV 48 h): 5 (11.9%) n (%)
- Patients with any SAEs to Day 30, n (%) ([3]; 30 mcg/kg/d IV 48 h): 7 (16.7%) n (%)
- Patients with any adverse events to Day 30, n (%) ([3]; 30 mcg/kg/d IV 48 h): 25 (59.5%) n (%)
- Protocol-specified study drug discontinuation due to blood pressure reduction ([3]; 30 mcg/kg/d IV 48 h): 9.5%
- Renal impairment: Patients with ≧0.3 mg/dL increase in creatinine at Day 5 ([3]; 30 mcg/kg/d IV 48 h): 7 (18.9%) n (%)
- Renal impairment: Patients with ≧0.3 mg/dL increase in creatinine at Day 5 and Day 14 ([3]; 30 mcg/kg/d IV 48 h): 3 (7.3%) n (%)
